From US12133856B2, “Multi-substituent psilocybin derivatives and methods of using” (Enveric Biosciences Canada Inc., priority 2021, dated 2024)
Where two headings read alike, the source gives them in different places.

What was measured:
5-HT1A receptor = biological target: T1, 5-HT1A receptor (Homo sapiens, UniProt P08908); assay: cAMP-Glo assay of 5-HT1A receptor modulation with 4 μM forskolin in CHO-K1/5-HT1A/Gα15 (+5-HT1A) versus CHO-K1/Gα15 (−5-HT1A) cells; type: cell-based; details: fixed 4 μM forskolin; cAMP relative (%) to ligand-free samples; decrease = 5-HT1A activity, no difference = no modulation
T1 construct: host or cells: CHO-K1 (co-expressing Gα15)
T1 sequence (P08908 1-422): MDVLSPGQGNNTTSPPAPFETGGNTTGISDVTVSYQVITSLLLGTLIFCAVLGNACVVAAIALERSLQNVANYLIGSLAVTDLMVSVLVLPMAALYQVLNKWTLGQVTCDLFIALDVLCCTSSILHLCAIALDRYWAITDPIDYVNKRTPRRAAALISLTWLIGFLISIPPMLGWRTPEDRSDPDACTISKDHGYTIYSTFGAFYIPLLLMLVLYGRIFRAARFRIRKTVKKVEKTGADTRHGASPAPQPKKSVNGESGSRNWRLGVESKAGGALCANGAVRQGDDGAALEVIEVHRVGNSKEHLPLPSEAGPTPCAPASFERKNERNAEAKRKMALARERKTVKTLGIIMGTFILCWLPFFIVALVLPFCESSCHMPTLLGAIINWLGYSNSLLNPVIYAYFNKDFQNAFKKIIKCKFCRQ
Excerpt: CHO-K1/Gα15 (GenScript, M00257) (−5-HT1A) and CHO-K1/5-HT1A/Gα15 (GenScript, M00330) (+5-HT1A) cells lines were used. Briefly, CHO-K1/Gα15 is a control cell line that constitutively expresses Gα15 which is a promiscuous Gq protein. This control cell line lacks any transgene encoding 5-HT1A receptors, but still responds to forskolin; thus, cAMP response to forskolin should be the same regardless of whether or not 5-HT1A agonists are present. Conversely, CHO-K1/5-HT1A/Gα15 cells stably express 5-HT1A receptor in the CHO-K1 host background. […] In +5-HT1A cells, Gα15 may be recruited in place of Gαi/o, which could theoretically dampen cAMP response (Rojas and Fiedler 2016, Front Cell Neurosci 10: 272). […] In contrast, tryptophan is not known to activate, or modulate in any way, 5-HT1A receptors, and was thus used as a negative control. Cells were maintained in complete growth media as recommended by supplier (GenScript) which is constituted as follows: Ham's F12 Nutrient mix (HAM's F12, GIBCO #11765-047) with 10% fetal bovine serum (FBS) (Thermo Scientific #12483020), 200 μg/ml zeocin (Thermo Scientific #R25005) and/or 100 μg/ml hygromycin (Thermo Scientific #10687010). The cells were cultured in a humidified incubator with 37° C. and 5% CO2. Cells maintenance was carried out as recommended by the cell supplier. Briefly, vials with cells were removed from the liquid nitrogen and thawed quickly in 37° C. water bath. Just before the cells were completely thawed the vial's outside was decontaminated by 70% ethanol spray. The cell suspension was then retrieved from the vial and added to warm (37° C.) complete growth media, and centrifuged at 1,000 rpm for 5 minutes. The supernatant was discarded, and the cell pellet was then resuspended in another 10 ml of complete growth media, and added to the 10 cm cell culture dish (Greiner Bio-One #664160). The media was changed every third day until the cells were about 90% confluent. The ˜90% confluent cells were then split 10:1 for maintenance or used for experiment.
As 5-HT1A activation inhibits cAMP formation, the ability of test molecules to modulate 5-HT1A response was measured via changes in the levels of cAMP produced due to application of 4 μM forskolin. […] Briefly, +5-HT1A cells were seeded on 1-6 columns and base −5-HT1A cells were seeded on columns 7-12 of the white walled clear bottom 96-well plate (Corning, #3903). Both cells were seeded at the density of 30,000 cells/well in 100 μl complete growth media and cultured 24 hrs in humidified incubator at 37° C. and 5% CO2. On the experiment day, the media of cells was replaced with serum/antibiotic free culture media. […] Forskolin induced cAMP formation whereas IBMX and RO 20-1724 inhibited the degradation of cAMP. PKA was added to the lysate, mixed, and subsequently the substrate of the PKA was added. PKA was activated by cAMP, and the amount of ATP consumed due to PKA phosphorylation directly corresponded to cAMP levels in the lysate.

5-HT2A [1] = biological target: T2, 5-HT2A (Homo sapiens, UniProt P28223); assay: Radioligand competition binding assay with [3H]ketanserin (scintillation proximity assay) on membranes containing 5-HT2A; parameters: purchased PerkinElmer ES-313-M400UA; details: for competition binding curve result at 5-HT2A receptor (binding / no binding): controls, FIG. 15C
Experimental: Ki values were calculated from the competition displacement data using the competitive binding analysis from GraphPad PRISM software.

5-HT2A [2] = biological target: T2, 5-HT2A; details: cited from earlier work

T2 sequence (P28223 whole entry): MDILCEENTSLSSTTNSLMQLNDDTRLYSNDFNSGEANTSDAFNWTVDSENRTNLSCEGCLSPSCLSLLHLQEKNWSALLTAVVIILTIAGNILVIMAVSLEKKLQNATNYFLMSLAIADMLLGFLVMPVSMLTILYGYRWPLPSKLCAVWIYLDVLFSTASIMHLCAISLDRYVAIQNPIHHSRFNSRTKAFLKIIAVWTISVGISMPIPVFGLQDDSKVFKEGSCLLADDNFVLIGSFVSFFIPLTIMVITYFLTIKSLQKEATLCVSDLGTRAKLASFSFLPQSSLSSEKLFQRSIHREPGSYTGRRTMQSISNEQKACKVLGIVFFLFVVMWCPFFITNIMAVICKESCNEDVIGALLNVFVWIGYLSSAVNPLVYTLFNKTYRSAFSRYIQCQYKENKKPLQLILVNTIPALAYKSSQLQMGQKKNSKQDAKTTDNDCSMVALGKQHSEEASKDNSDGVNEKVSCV

## CC(=O)NCCc1c[nH]c2cc(F)cc(N)c12 [(IX)]
5-HT1A receptor
  % cAMP in +5HT1A compared to −5HT1A cultures as dosages increase: no significant difference
5-HT2A [1]; fixed 1 nM [3H]ketanserin, test compound 3 nM to 1 mM, FIG. 15D
  specific binding in competition with [3H]ketanserin for 5-HT2A sites (competition not complete): ~50%

## CC(=O)NCCc1c[nH]c2cc(NC(C)=O)cc(F)c12 [(X)]
5-HT1A receptor
  % cAMP in +5HT1A compared to −5HT1A cultures as dosages increase: no significant difference
5-HT2A [1]; [3H]ketanserin competition, FIG. 16B, indicates comparatively 'loose' binding
  Ki value at 5-HT2A compared with that of psilocin (in words): relatively high

## CNC(C)Cc1ccc2c(c1)OCO2 (centres unmarked) [MDMA]
5-HT2A [2]
  Ki values for 5-HT2A (in words): micromolar range

## COc1cc(CCN)cc(OC)c1OC [mescaline]
5-HT2A [2]; literature values signifying mild or 'loose' binding profiles
  Ki values for 5-HT2A (in words): micromolar range

## CN(C)CCc1c[nH]c2cccc(O)c12 [psilocin]
5-HT1A receptor
  % cAMP in +5HT1A compared to −5HT1A cultures as dosages increase: decreased % cAMP
5-HT2A [1]; fixed 1 nM [3H]ketanserin
  competition binding curve result at 5-HT2A receptor (binding / no binding): binding

## NCCc1c[nH]c2ccc(O)cc12 [serotonin]
5-HT1A receptor
  % cAMP in +5HT1A compared to −5HT1A cultures as dosages increase: decreased % cAMP

## N[C@@H](Cc1c[nH]c2ccccc12)C(=O)O [tryptophan]
5-HT1A receptor
  % cAMP in +5HT1A compared to −5HT1A cultures as dosages increase: no significant difference
5-HT2A [1]; fixed 1 nM [3H]ketanserin
  competition binding curve result at 5-HT2A receptor (binding / no binding): no binding
